Legend:
[1] = test system: H. felis-infected INS-GAS mice; assay: Gastric mucosa histological evaluation and scoring; type: in vivo; details: omeprazole study, 3 months; scale 0 to 4; n = 4
Description: The insulin-gastrin (INS-GAS) transgenic mice (FVB/N background) have been described previously (Wang, T. C. et al., 2000; Wang T. C. et al., 1993) and were free of specific pathogens. Animals were housed in microisolator, solid-bottomed polycarbonate cages, fed a commercially prepared pelleted diet, and given water ad libitum. One hundred twenty four (124) male INS-GAS mice at 2 or 3 months of age were inoculated with Helicobacter felis (ATCC 49179) as previously described (Wang, T. C. et al., 2000). Infection status was confirmed at 14 weeks and 26 weeks post inoculation by enzyme-linked immunosorbent assay (ELISA) to measure immunoglobulin IgG antibody to H. felis, and by quantitative real-time PCR assays of gastric corpus tissue at necropsy as described below. All experiments were approved by the Institutional Animal Care and Use Committee of University of Massachusetts Medical School.
Mice in group III were treated orally with the histamine H2 receptor antagonist loxtidine (in drinking water) at a dose of 0.5 g/L, while group IV mice received both drugs. For the 3 months drug study of inhibitory effects on maximal acid secretion, gastric atrophy, hyperplasia and dysplasia, 8 mice were prepared for each group. For the 6 months drug study of inhibitory effects on gastric carcinogenesis, 17 mice were prepared for each group.
The proton pump inhibitor omeprazole was purchased from Sigma (St. Louis Mo.) and dissolved in dimethylsulfoxide (DMSO)/PEG300, a 1:1 mixture at the concentration of 40 mg/ml, and injected intraperitoneally daily at the dose of […] (=350 micromole/kg) for 3 months. Twenty four (24) mice were divided into four groups. Mice in group A were controls treated with vehicle only, whereas group B mice were treated with omeprazole alone. Group C and D mice were treated with combination of omeprazole and YF476 or loxtidine, respectively.
At necropsy, linear strips extending from the squamocolumnar junction through the proximal duodenum were fixed in 10% neutral-buffered formalin, paraffin-embedded, cut at 5 microns, and stained with hematoxylin and eosin. Indices of injury in the gastric cardia/corpus and antrum were scored on an ordinal scale from 0 to 4 in increments of 0.5 by a single veterinary pathologist (A.B.R.) blinded to treatment groups. Paraffin-embedded sections were also stained with the Warthin-Starry silver staining method for detection of H.felis as previously described (Fox, J. G. et al., 2003).

ECL cell = details: rats; Poynter et al.; cited from earlier work
CCK-B = target: T1, CCK-B (Rattus norvegicus, UniProt P30553); details: reportedly; Lindstrom et al 1999; cited from earlier work
T1 sequence (P30553 1-452): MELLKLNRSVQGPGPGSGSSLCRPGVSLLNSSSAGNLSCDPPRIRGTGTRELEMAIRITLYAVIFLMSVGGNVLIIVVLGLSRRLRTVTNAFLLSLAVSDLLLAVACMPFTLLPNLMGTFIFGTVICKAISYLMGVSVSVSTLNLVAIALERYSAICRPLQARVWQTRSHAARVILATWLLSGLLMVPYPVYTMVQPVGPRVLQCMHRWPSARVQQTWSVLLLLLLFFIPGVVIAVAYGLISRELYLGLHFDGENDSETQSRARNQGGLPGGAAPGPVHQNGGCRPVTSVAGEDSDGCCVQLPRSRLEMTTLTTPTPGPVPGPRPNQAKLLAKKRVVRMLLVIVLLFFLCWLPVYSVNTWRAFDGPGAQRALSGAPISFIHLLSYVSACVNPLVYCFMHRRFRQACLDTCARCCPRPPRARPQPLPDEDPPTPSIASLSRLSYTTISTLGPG

## COc1ccc2[nH]c([S+]([O-])Cc3ncc(C)c(OC)c3C)nc2c1 (stereo not drawn) [Omeprazole alone]
[1]
  Corpus histological score: Atrophy: 3.13 ± 0.25
  Corpus histological score: Dysplasia: 1.38 ± 0.48
  Corpus histological score: Hyperplasia: 2.75 ± 0.50
  Corpus histological score: Inflammation: 1.88 ± 0.63a
ECL cell
  Duration of administration after which ECL cell hyperplasia was seen: 28 days

## Cc1cccc(NC(=O)N[C@@H]2N=C(c3ccccc3)c3ccccc3N(CC(=O)c3ccccc3C)C2=O)c1 [YM022]
CCK-B
  Potency relative to YF476: about 5 times

Source: US20050042283A1, “Histamine and CCK2/gastrin receptor blockade in the treatment of acid-peptic disease and cancer” (UNIVERSITY OF MASSACHUSETTS, priority 2003, published 2005)
